Here are results for 4 compounds from patent US12485107B2, “Methods for the prevention or treatment of cytokine storm” (Beth Israel Deaconess Medical Center, Inc., priority 2019, dated 2025).

For assay [1], the system named is ID8 murine ovarian tumor cells. In words: Annexin V/propidium iodide flow cytometry of chemotherapy-treated ID8 cells. In kind it is cell-based. The note with it: annexin V/PI; cisplatin 30 μM 48 hours, carboplatin 100 μM 72 hours, paclitaxel 1 μM 48 hours. As to the method: Chemotherapy-generated murine (ID8) and human (OVCAR5) ovarian tumor cell debris were prepared by re-feeding 70% confluent T150 flasks with complete medium plus 1 μM paclitaxel (Cayman Chemical, Ann Arbor, MI) or 100 μM carboplatin (Sigma Aldrich, Natick, MA) and incubating for 48 or 72 hours, respectively, at 37° C. Cisplatin-generated ID8 debris was prepared by re-feeding 70% confluent T150 flasks with complete medium plus 30 μM cisplatin (Sigma Aldrich, Natick, MA) and incubating for 48 hours at 37° C. The resulting floating population (e.g., dead cells or “debris”) was collected, counted via hemocytometer, and pelleted. The dead cells were resuspended with phosphate-buffered saline (PBS), pelleted, and resuspended again at the desired concentration in PBS.
Murine (ID8) or human (OVCAR5) ovarian tumor cells were treated with vehicle or a chemotherapeutic agent (e.g., cisplatin, carboplatin, or paclitaxel) as described. B/CMBA.Ov murine ovarian epithelial cells were treated with vehicle or PTUPB (1 or 5 μM) for 24 hours. The floating population (e.g., dead cells or “debris”) was collected, and the remaining adhered cells were trypsinized and combined with the dead cells. RAW264.7 murine macrophages were treated with vehicle or PTUPB (5 μM) for 24 hours. The floating population was collected and the remaining adhered cells were detached using a cell scraper (Corning Inc., Corning, NY) and combined with the dead cells. Cells were counted via hemocytometer, pelleted, and resuspended in PBS at 1×10^6 cells/mL. Next, 2×10^5 cells were stained with annexin V and propidium iodide (PI) according to FITC Annexin V/Dead Cell Apoptosis Kit protocol (Life Technologies, Carlsbad, CA). Staining was assessed using the BD LSR Fortessa (BD Biosciences, San Jose, CA) at the Dana-Farber Cancer Institute Jimmy Fund Flow Cytometry Core, and analyzed using FlowJo software (Tree Star Inc., Ashland, OR). Experiments were performed three times with similar results.
(In general: A flow cytometer gives signals particle by particle.)

Assay [2] deals with RAW264.7 murine macrophages. Format: cell-based. The note with it: 5 μM, 2 hours pre-treatment.

Each structure is given as a SMILES string. “Also recorded” adds a separate entry of the source.

With `N.N.[Cl][Pt][Cl]` [Cisplatin], the “cell death in ID8 ovarian cells” value in assay [1] is given as 67%.
On to `COc1ccc(-n2nc(CCCNC(=O)Nc3ccc(C(F)(F)F)cc3)cc2-c2ccccc2)cc1` [Ome-21i, 1-(3-(1-(4-methoxyphenyl)-5-phenyl-1H-pyrazol-3-yl)propyl)-3-(4-(trifluoromethyl)phenyl)urea], for which the “cytokine storm released by macrophages stimulated with aflatoxin B1-generated Hepa 1-6 debris” value in assay [2] is given as “shows potency in down-regulating; also recorded: inhibited”.
For `N.N.O=C([O-])C1(C(=O)[O-])CCC1.[Pt+2]` [carboplatin], the “cell death in ID8 ovarian cells” value in assay [1] amounted to 78%.
The same measure, in the same setting: then `CC(=O)O[C@H]1C(=O)[C@@]2(C)[C@H]([C@H](OC(=O)c3ccccc3)[C@]3(O)C[C@H](OC(=O)[C@H](O)[C@@H](NC(=O)c4ccccc4)c4ccccc4)C(C)=C1C3(C)C)[C@]1(OC(C)=O)CO[C@@H]1C[C@@H]2O` [paclitaxel], with 56%.
